Data published in the supplement of paper PMC10307832.

Assays:
Assay in all cases: relative viability (nuclei count vs DMSO), 5 days (fraction); higher = more cells survive
Vandetanib + Dasatinib = compound: COc1cc2/c(=N/c3ccc(Br)cc3F)nc[nH]c2cc1OCC1CCN(C)CC1 [Vandetanib] + Cc1nc(Nc2ncc(C(=O)Nc3c(C)cccc3Cl)s2)cc(N2CCN(CCO)CC2)n1 [Dasatinib] (partner 0.075 µM)
Summary of the method: (§1)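 Dosing by pin tool came one day after lung cancer cell lines were seeded in 1536-well plates, using either one drug or a fixed anchor-drug dose plus five library-drug doses (not always all listed) in √10 steps. After 5 days, nuclei were counted on 4× images. Relative viability is treated-well nuclei count divided by vehicle-well nuclei count, and values are medians of duplicate plates.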

Vandetanib + AZD7762 = compound: COc1cc2/c(=N/c3ccc(Br)cc3F)nc[nH]c2cc1OCC1CCN(C)CC1 [Vandetanib] + NC(=O)Nc1cc(-c2cccc(F)c2)sc1C(=O)N[C@H]1CCCNC1 [AZD7762] (partner 0.2 µM)
Summary of the method: as §1

NVP-TAE684 + AZD7762 = compound: COc1cc(N2CCC(N3CCN(C)CC3)CC2)ccc1Nc1ncc(Cl)c(Nc2ccccc2S(=O)(=O)C(C)C)n1 [NVP-TAE684] + NC(=O)Nc1cc(-c2cccc(F)c2)sc1C(=O)N[C@H]1CCCNC1 [AZD7762] (partner 0.2 µM)
Summary of the method: as §1

Vandetanib + Vorinostat = compound: COc1cc2/c(=N/c3ccc(Br)cc3F)nc[nH]c2cc1OCC1CCN(C)CC1 [Vandetanib] + O=C(CCCCCCC(=O)Nc1ccccc1)NO [Vorinostat] (partner 1 µM)
Summary of the method: as §1

Cell Line	relative viability (Vandetanib + Dasatinib; first compound 0.02 µM)	relative viability (Vandetanib + Dasatinib; first compound 0.06325 µM)	relative viability (Vandetanib + Dasatinib; first compound 0.2 µM)	relative viability (Vandetanib + Dasatinib; first compound 0.6325 µM)	relative viability (Vandetanib + Dasatinib; first compound 2 µM)	relative viability (Vandetanib + AZD7762; first compound 0.02 µM)	relative viability (Vandetanib + AZD7762; first compound 0.06325 µM)	relative viability (Vandetanib + AZD7762; first compound 0.2 µM)	relative viability (Vandetanib + AZD7762; first compound 0.6325 µM)	relative viability (Vandetanib + AZD7762; first compound 2 µM)	relative viability (NVP-TAE684 + AZD7762; first compound 0.2 µM)	relative viability (NVP-TAE684 + AZD7762; first compound 0.6325 µM)	relative viability (NVP-TAE684 + AZD7762; first compound 2 µM)	relative viability (Vandetanib + Vorinostat; first compound 0.02 µM)	relative viability (Vandetanib + Vorinostat; first compound 0.06325 µM)	relative viability (Vandetanib + Vorinostat; first compound 0.2 µM)	relative viability (Vandetanib + Vorinostat; first compound 0.6325 µM)	relative viability (Vandetanib + Vorinostat; first compound 2 µM)
PC-14	0.246	0.136	0.0576	0.0422	0.0429	0.361	0.282	0.25	0.164	0.13	0.339	0.275	0.224	0.774	0.619	0.493	0.107	0.0824
EKVX	0.547	0.566	0.498	0.602	0.374	0.693	0.692	0.611	0.694	0.547	0.634	0.677	0.375	0.727	0.697	0.732	0.776	0.382
NCI-H322M	0.23	0.25	0.24	0.223	0.252	0.518	0.567	0.605	0.496	0.374	0.553	0.599	0.453	0.867	0.853	0.874	0.761	0.583
NCI-H1355	0.633	0.723	0.694	0.679	0.775	0.741	0.742	0.755	0.66	0.653	0.862	0.691	0.479	0.603	0.565	0.671	0.624	0.649
ChaGo-K-1	0.581	0.63	0.269	0.584	0.607	0.878	0.886	0.893	0.816	0.896	1.02	0.836		0.735	0.765	0.767	0.797	0.798
NCI-H2126	0.564	0.564	0.626	0.559	0.467	1.03	0.938	1.01	0.971	1	1.03	1.01	0.684	0.801	0.736	0.703	0.702	0.699
NCI-H1755	0.416	0.425	0.446	0.42	0.404	0.455	0.436	0.42	0.437	0.503	0.434	0.427	0.328	0.768	0.818	0.773	0.709	0.709
NCI-H358	0.131	0.201	0.161	0.136	0.124	0.545	0.465	0.476	0.431	0.358	0.55	0.298	0.225	0.61	0.594	0.668	0.68	0.257
NCI-H2347	0.299		0.312	0.323	0.345	0.764	0.657	0.788	0.778	0.689	0.723	0.613	0.628	0.643	0.387	0.575	0.678	0.574
